Biological target: T1, phosphatase ABI1 via the co-regulator RCAR11/PYR1 (Arabidopsis thaliana, UniProt O49686+P49597)
T1 sequence (O49686 1-191): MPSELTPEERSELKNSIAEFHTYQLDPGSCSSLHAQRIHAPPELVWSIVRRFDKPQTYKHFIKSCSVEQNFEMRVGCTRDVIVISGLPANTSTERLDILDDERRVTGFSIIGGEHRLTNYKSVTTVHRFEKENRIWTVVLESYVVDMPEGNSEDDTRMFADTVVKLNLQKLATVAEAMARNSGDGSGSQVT
T1 sequence (P49597 1-434): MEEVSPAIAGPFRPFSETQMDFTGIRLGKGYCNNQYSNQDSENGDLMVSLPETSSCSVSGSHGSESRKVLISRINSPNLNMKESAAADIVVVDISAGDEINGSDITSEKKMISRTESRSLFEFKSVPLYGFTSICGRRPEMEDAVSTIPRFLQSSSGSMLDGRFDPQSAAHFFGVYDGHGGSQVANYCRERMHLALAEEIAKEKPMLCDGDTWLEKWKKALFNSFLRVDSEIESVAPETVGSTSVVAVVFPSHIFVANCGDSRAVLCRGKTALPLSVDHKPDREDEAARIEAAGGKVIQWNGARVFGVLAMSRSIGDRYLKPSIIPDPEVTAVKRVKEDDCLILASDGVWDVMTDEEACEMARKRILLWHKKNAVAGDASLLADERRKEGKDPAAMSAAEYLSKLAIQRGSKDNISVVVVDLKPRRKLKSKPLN
Assay: In vitro assay: inhibition of the phosphatase ABI1 via the co-regulator RCAR11/PYR1, MUP dephosphorylation, fluorescence
Format: biochemical
Design: inhibition: dose or concentration left out as unconfirmed
Details: MUP dephosphorylation, fluorescence 460 nm; for ABI1 inhibition: concentration of 5 mM of the substance in a solution of DMSO and water
Procedure, shortened: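 ABI1 (0.15 μg/well) with RCAR11 (0.30 μg/well) in Tris-HCl pH 8, NaCl, MnCl2, DTT and Tween20, with MUP as substrate; 20 min at 35 °C, fluorescence at ex 340/em 460 nm. Compounds were in DMSO/water, esterase-pretreated if needed, with DMSO 0.5% and ABA 5 μM as controls. Inhibition was binned into ≥90, 70–90, 50–70 and 30–50% classes.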

Row | SMILES | ABI1 inhibition | inhibition (read-out: ABI1 inhibition) [%]
1 | CCOC(=O)/C=C(\C#CC(O)(C(C)C)C1(C#N)CC1)CC (stereo not drawn) [I.1-103] | ++++ (inhibition≥90%) | 
2 | CCOC(=O)/C=C(\C#CC(O)(C(C)C)C1(C#N)CC1)C1CC1 (stereo not drawn) [I.1-124, Ethyl (2Z)-6-(1-cyanocyclopropyl)-3-cyclopropyl-6-hydroxy-7-methyloct-2-en-4-ynoate] |  | > 90
3 | COC(=O)/C=C(/C)C#CC(O)(C(C)C)C1(C#N)CC1 (stereo not drawn) [I.1-135] | ++++ (inhibition≥90%) | 
4 | CCOC(=O)/C=C(/C)C#CC(O)(C(C)C)C1(C#N)CC1 (stereo not drawn) [I.1-136] | +++ (90%>inhibition≥70%) | 
5 | CC/C(C#CC(O)(c1ccccc1)C1(C#N)CC1)=C/C(=O)OC (stereo not drawn) [I.1-202] | ++++ (inhibition≥90%) | 
6 | CCCOC(=O)/C=C(\C#CC(O)(C(C)C)C1(C#N)CC1)CC (stereo not drawn) [I.1-605] | ++++ (inhibition≥90%) | 

Further lines, results first:

Row | ABI1 inhibition | inhibition (read-out: ABI1 inhibition) [%] | SMILES
7 | ++++ (inhibition≥90%) |  | CCC(C=CC(O)(c1ccccc1)C1(C#N)CC1)=CC(=O)O (racemic) [I.2-201]
8 | ++++ (inhibition≥90%) |  | CCCOC(=O)/C=C(\C#CC(O)(c1ccccc1)C1(C#N)CC1)CC (stereo not drawn) [I.1-609]
9 | ++++ (inhibition≥90%) |  | CC/C(C#CC(O)(C1CCC1)C1(C#N)CC1)=C/C(=O)OC (stereo not drawn) [I.1-648]

Source: patent US10322995B2, “Substituted cyano cycloalkyl penta-2,4-dienes, cyano cycloalkyl pent-2-en-4-ynes, cyano heterocyclyl penta-2,4-dienes and cyano heterocyclyl pent-2-en-4-ynes as active substances against abiotic plant stress” (BAYER CROPSCIENCE AKTIENGESELLSCHAFT, priority 2014, dated 2019)
